The values that follow come from patent publication US20220372020A1, “CRYSTALLINE FORMS OF PHTHALAZINONE COMPOUND” (Idience Co., Ltd., priority 2020, published 2022).

Data set [1] in a line: Long-term stability purity test (total impurities by HPLC). The format is physicochemical. Conditions: relative humidity 60±5%; for Total impurities content: HPLC. The procedure: Crystalline Form A of the compound of Formula 1 prepared in Example 1 was stored under long-term storage conditions (25±2° C., and Relative humidity: 60±5%). Samples were taken after 3 months, 6 months, 9 months, 12 months, 18 months, and even 24 months from the onset of the storage to measure total impurities content by high performance liquid chromatography (HPLC).

The nature of data set [2]: Storage behaviour of the amorphous form. The format is physicochemical. The source says:
The obtained amorphous form readily absorbed water during the storage, i.e., it was hygroscopic, whereby the color turned yellow. It was thus confirmed that the amorphous form was not suitable for use as a medicinal drug substance.

Data set [3] deals with poly(ADP-ribose) polymerase (PARP). The conditions noted are these: as disclosed in US'973; cited from earlier work.

`Cl.O=C(c1cc(Cc2n[nH]c(=O)c3ccccc23)ccc1F)N1CC(CNC2CC2)C1` [Crystalline Form A, 4-[3-(3-[(cyclopropylamino)methyl]azetidine-1-carbonyl)-4-fluorobenzyl]phthalazin-1(2H)-one hydrochloride]: the Total impurities content in data set [1] (3 months, 25±2° C.) is 0.15% wt %; in data set [1] (6 months, 25±2° C.) it was 0.16% wt %; in data set [1] (9 months, 25±2° C.), 0.15% wt %; in data set [1] (12 months, 25±2° C.), 0.14% wt %; in data set [1] (18 months, 25±2° C.), 0.19% wt %; in data set [1] (Initial, long-term storage 25±2° C.), 0.14% wt %. For the same compound, in data set [1] (25±2° C., up to 24 months), the “Stability under long-term storage conditions (in words)” value is reported as “high stability”.
As to `Cl.O=C(c1cc(Cc2n[nH]c(=O)c3ccccc23)ccc1F)N1CC(CNC2CC2)C1` [amorphous form, 4-[3-(3-[(cyclopropylamino)methyl]azetidine-1-carbonyl)-4-fluorobenzyl]phthalazin-1(2H)-one hydrochloride], in data set [2], the “Colour change during storage” value is listed as “turned yellow” and the “Water absorption during storage (hygroscopicity)” value was “hygroscopic”.
As to `Cl.O=C(c1cc(Cc2n[nH]c(=O)c3ccccc23)ccc1F)N1CC(CNC2CC2)C1` [compound of Formula 1, 4-[3-(3-[(cyclopropylamino)methyl]azetidine-1-carbonyl)-4-fluorobenzyl]phthalazin-1(2H)-one hydrochloride], the PARP inhibitory activity entry in data set [3] is given as “PARP inhibitory activity”.
